According to patent publication US9642886B2, “Plant based formulation for the prevention and management of metabolic syndrome by its adiponectin enhancing property” (SRM UNIVERSITY, priority 2014, dated 2017):

System: Metabolic Syndrome cases
Assay: Clinical study in Metabolic Syndrome cases
Type: in vivo, human
Experimental: The study population consisted of 128 diagnosed Metabolic Syndrome cases (76 Men and 52 Women), aged 52.81±9.68 years at study entry. The cases were diagnosed as per criteria given by WHO for classification and diagnosis of Metabolic Syndrome. After preliminary screening the subjects showing association with 3 or more than 3 above factors were selected. The clinical trial was conducted in three groups— Group-I: 36 cases were treated with Orlistat (120 mg twice a day after each meals). Group-II: 44 cases were treated with Ayurvedic formulation. Group-III: 48 cases were administered Orlistat along with Ayurvedic formulation. […] Lipid profile including triglyceride was estimated by standard laboratory kits. TNF-[…], interleukin-6 was measured by ELISA kit, adiponectin by radioimmunoassay kit. CRP by kit for quantitative nephelometric determination of CRP in human serum or plasma by Turbox/Turbox analyzer and ELISA activity assay kit for Leptin level. Subjects suffering from any other disease known to affect the study parameters were excluded from the series. Upon recruitment all subjects gave informed written consent.

CCCCCCCCCCC[C@@H](C[C@@H]1OC(=O)[C@H]1CCCCCC)OC(=O)[C@H](CC(C)C)NC=O [Conventional drug, Orlistat]
Adiponectin (After 6 months): 10.04 ± 2.84 µg/mL
Apolipo (B) (After 6 months): 156.41 ± 17.11 mg/dL
Diastolic blood pressure (After 6 months): 84.42 ± 1.98 mmHg
Endotheline (After 6 months): 875.42 ± 171.36 pg/mL
Fasting blood glucose (After 6 months): 99.43 ± 4.36 mg/dL
HDL-c (After 6 months): 50.75 ± 3.12 mg/dL
Interleukin-6 (After 6 months): 1.89 ± 0.75 pg/mL
LDL-c (After 6 months): 109.42 ± 8.44 mg/dL
Leptin (After 6 months): 26.44 ± 3.28 µg/L
Postprandial blood glucose (After 6 months): 186.90 ± 17.42 mg/dL
Systolic blood pressure (After 6 months): 126.90 ± 4.06 mmHg
TNF-α (After 6 months): 324.85 ± 57.86 pg/mL
Total cholesterol (After 6 months): 208.91 ± 27.97 mg/dL
Triglycerides (After 6 months): 224.56 ± 37.90 mg/dL
hs CRP (After 6 months): 3.48 ± 0.89 mg/L
Body Mass Index (BMI) (Female, After 3 months): 29.68 ± 2.04
Body Mass Index (BMI) (Female, After 6 months): 28.45 ± 1.68
Body Mass Index (BMI) (Female, Initial): 31.14 ± 1.88
Adiponectin (Initial): 7.82 ± 1.64 µg/mL
Apolipo (B) (Initial): 193.88 ± 31.64 mg/dL
Diastolic blood pressure (Initial): 88.35 ± 2.06 mmHg
Endotheline (Initial): 1139.73 ± 211.54 pg/mL
Fasting blood glucose (Initial): 133.90 ± 8.82 mg/dL
HDL-c (Initial): 43.84 ± 2.42 mg/dL
Interleukin-6 (Initial): 2.35 ± 0.84 pg/mL
LDL-c (Initial): 143.71 ± 9.13 mg/dL
Leptin (Initial): 33.41 ± 4.35 µg/L
Postprandial blood glucose (Initial): 224.81 ± 20.14 mg/dL
Systolic blood pressure (Initial): 137.82 ± 5.15 mmHg
TNF-α (Initial): 579.84 ± 68.36 pg/mL
Total cholesterol (Initial): 243.84 ± 41.52 mg/dL
Triglycerides (Initial): 371.90 ± 43.88 mg/dL
hs CRP (Initial): 5.31 ± 1.04 mg/L
Body Mass Index (BMI) (Male, After 3 months): 28.82 ± 1.90
Body Mass Index (BMI) (Male, After 6 months): 27.16 ± 1.35
Body Mass Index (BMI) (Male, Initial): 30.75 ± 2.17
